Source: ChEMBL document CHEMBL5696444 (Nat Commun, 2017)

What was measured:
[1] = target: Dual specificity tyrosine-phosphorylation-regulated kinase 4 (Homo sapiens) (UniProt Q9NR20); test: Inhibition of DYRK4 (unknown origin) at 123 nM in the presence of ATP by Kinome scan method relative to control; settings: time > 6.0 hrs
HCT-116 = test: Induction of cell cycle arrest in human HCT-116 cells assessed as sub G0/G1 phase at 5 uM incubated for 6 hrs by flow cytometry analysis (Rvb=1.6%); type: functional
[2] = target: Ribosomal protein S6 kinase beta-1 (Homo sapiens) (UniProt P23443); test: Inhibition of RPS6KB1 (unknown origin) at 1000 nM in the presence of ATP by Kinome scan method relative to control
[3] = target: Protein kinase C theta type (Homo sapiens) (UniProt Q04759); test: Inhibition of PRKCQ (unknown origin) at 100 nM in the presence of ATP by Kinome scan method relative to control
Sequence of Protein kinase C theta type (Homo sapiens) (Q04759 whole entry, looked up): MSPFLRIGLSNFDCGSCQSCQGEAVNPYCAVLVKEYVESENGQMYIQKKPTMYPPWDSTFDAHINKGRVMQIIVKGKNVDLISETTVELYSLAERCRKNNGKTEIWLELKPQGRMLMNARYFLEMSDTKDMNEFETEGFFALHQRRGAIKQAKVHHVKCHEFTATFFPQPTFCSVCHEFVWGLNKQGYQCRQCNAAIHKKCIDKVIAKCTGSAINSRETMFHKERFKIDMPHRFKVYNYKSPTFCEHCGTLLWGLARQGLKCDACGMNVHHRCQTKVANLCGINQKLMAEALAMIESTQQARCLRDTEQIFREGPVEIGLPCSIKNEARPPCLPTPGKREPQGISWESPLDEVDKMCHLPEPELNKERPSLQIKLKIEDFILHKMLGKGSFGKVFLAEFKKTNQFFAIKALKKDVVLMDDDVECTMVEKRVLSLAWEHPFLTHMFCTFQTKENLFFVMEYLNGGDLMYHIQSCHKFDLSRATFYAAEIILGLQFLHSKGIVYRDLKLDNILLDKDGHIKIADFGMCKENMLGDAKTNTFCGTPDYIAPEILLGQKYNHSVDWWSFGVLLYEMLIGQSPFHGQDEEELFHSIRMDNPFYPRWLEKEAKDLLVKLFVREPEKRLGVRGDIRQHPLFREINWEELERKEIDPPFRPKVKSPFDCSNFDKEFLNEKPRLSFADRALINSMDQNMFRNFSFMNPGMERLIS

Sequence of Dual specificity tyrosine-phosphorylation-regulated kinase 4 (Homo sapiens) (Q9NR20 whole entry): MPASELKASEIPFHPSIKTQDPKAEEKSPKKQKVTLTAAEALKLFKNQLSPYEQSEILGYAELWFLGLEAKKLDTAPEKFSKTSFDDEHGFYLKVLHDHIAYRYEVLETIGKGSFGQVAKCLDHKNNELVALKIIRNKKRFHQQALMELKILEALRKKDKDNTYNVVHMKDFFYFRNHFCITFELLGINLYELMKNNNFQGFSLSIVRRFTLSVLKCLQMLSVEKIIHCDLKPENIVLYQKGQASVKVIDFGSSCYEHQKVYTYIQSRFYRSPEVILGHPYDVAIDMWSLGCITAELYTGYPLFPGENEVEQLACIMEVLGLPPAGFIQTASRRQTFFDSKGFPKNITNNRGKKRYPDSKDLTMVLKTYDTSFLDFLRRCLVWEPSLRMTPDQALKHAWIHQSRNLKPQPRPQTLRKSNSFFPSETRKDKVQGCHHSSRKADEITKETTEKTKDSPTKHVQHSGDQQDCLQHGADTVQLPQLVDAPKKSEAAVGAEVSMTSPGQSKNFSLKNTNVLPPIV
Sequence of Ribosomal protein S6 kinase beta-1 (Homo sapiens) (P23443 whole entry, looked up): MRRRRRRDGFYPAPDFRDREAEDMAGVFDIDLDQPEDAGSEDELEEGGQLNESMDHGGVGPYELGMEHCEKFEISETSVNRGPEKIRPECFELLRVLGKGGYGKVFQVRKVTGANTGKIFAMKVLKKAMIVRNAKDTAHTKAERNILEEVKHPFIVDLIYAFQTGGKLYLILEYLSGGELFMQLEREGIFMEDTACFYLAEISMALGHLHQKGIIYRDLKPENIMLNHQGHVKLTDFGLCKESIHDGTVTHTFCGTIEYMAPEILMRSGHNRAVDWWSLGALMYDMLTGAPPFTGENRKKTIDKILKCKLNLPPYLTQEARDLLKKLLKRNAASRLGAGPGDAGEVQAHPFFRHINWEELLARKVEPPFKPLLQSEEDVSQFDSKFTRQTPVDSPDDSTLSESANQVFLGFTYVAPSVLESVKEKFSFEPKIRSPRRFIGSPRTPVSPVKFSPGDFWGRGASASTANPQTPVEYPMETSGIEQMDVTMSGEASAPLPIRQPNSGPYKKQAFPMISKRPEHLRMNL

inhibition [1]: -8% | inhibition [2]: 1% | inhibition [3]: 5%
Compound: CN1CCN(C(=O)C(C)(C)c2ccc(C(=O)Nc3cn4cc(-c5ccncc5)ccc4n3)cc2)CC1 [T3-CLK]
Activity (HCT-116): 2.2%
